Test results from patent US20240270762A1, “PENICILLIN-BINDING PROTEIN INHIBITORS” (priority 2021, published 2024).
In brackets after ≈: the same amount, converted by molar mass.

Key:
A. baumannii PBP2 = A. baumannii PBP2 (Acinetobacter baumannii, UniProt D0C8Z9); test: Bocillin-FL competition binding via gel filtration, A. baumannii PBP2
How it was run: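 Enzyme pre-incubated with increasing inhibitor concentrations, then Bocillin-FL added for 15 min further incubation. Bocillin-FL-bound PBP separated by gel filtration and fluorescence read. EC50 from fitting fraction PBP bound vs inhibitor concentration to a Hill-type equation (ymin, ymax, n).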

P. aeruginosa ATCC 27853 = test: microbe, parasite or virus in culture; assay type: cell-based; details: Pseudomonas aeruginosa, ATCC27853, read-out: Minimum inhibitory concentration, P. aeruginosa ATCC 27853
A. baumannii ATCC 19606 = test: microbe, parasite or virus in culture; assay type: cell-based; details: Acinetobacter baumannii, ATCC19606, read-out: MIC, A. baumannii ATCC 19606
P. aeruginosa CDC-0110 = test: microbe, parasite or virus in culture; assay type: cell-based; details: Pseudomonas aeruginosa, CDC0110, read-out: Minimum inhibitory concentration, P. aeruginosa CDC-0110
[1] = target: T1, PBP3 from Pseudomonas aeruginosa (PAO1) (Pseudomonas aeruginosa, UniProt G3XD46); test: Bocillin-FL fluorescence polarization competition binding, P. aeruginosa PBP3; details: Binding affinity to P. aeruginosa PBP3; fluorescence polarization competition binding assay using Bocillin-FL; read-out: P. aeruginosa PBP3 Potency
T1 construct: made in house
T1 sequence (G3XD46 whole entry): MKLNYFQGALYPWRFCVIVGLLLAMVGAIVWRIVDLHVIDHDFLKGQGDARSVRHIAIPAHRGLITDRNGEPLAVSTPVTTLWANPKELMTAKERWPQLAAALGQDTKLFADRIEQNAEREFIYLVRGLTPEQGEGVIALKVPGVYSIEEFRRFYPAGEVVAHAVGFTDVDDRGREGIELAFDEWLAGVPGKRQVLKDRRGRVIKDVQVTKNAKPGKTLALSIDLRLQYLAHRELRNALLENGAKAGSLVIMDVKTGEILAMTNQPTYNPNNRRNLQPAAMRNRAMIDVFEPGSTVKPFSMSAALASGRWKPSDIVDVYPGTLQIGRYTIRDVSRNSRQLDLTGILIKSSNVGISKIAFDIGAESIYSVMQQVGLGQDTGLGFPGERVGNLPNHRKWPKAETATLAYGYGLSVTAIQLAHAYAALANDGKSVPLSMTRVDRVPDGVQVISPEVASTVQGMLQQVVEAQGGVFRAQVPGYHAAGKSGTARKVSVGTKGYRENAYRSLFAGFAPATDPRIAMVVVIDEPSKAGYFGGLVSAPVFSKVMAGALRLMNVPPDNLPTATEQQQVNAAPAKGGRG
How it was run: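 Purified PBPs pre-incubated with inhibitor (E. coli PBP3 1.5 μM, 30 min; P. aeruginosa PBP3 0.75 μM, A. baumannii PBP1a 1 μM and PBP3 0.2 μM, 15 min), then Bocillin-FL 0.1 μM (0.05 μM for PBP1a) added; FP read up to 60 min. EC50 = concentration halving bound Bocillin-FL.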

P. aeruginosa CDC-0090 = test: microbe, parasite or virus in culture; assay type: cell-based; details: Pseudomonas aeruginosa, CDC0090, read-out: Minimum inhibitory concentration, P. aeruginosa CDC-0090
A. baumannii CDC-0045 = test: microbe, parasite or virus in culture; assay type: cell-based; details: Acinetobacter baumannii, CDC0045, read-out: MIC, A. baumannii CDC-0045
A. baumannii CDC-0033 = test: microbe, parasite or virus in culture; assay type: cell-based; details: Acinetobacter baumannii, CDC0033, read-out: MIC, A. baumannii CDC-0033
P. aeruginosa CDC-0095 = test: microbe, parasite or virus in culture; assay type: cell-based; details: Pseudomonas aeruginosa, CDC0095, read-out: Minimum inhibitory concentration, P. aeruginosa CDC-0095
[2] = test system: B. humptydooensis ATCC BAA-2767; test: microbe, parasite or virus in culture; assay type: cell-based; details: Burkholderia humptydooensis, ATCCBAA2767, read-out: Minimum inhibitory concentration (MIC), B. humptydooensis ATCC BAA-2767
A. baumannii CDC-0083 = test: microbe, parasite or virus in culture; assay type: cell-based; details: Acinetobacter baumannii, CDC0083, read-out: MIC, A. baumannii CDC-0083
P. aeruginosa ATCC 35151 = test: microbe, parasite or virus in culture; assay type: cell-based; details: Pseudomonas aeruginosa, ATCC35151, read-out: Minimum inhibitory concentration, P. aeruginosa ATCC 35151

A. baumannii PBP2, sequence (D0C8Z9 whole entry): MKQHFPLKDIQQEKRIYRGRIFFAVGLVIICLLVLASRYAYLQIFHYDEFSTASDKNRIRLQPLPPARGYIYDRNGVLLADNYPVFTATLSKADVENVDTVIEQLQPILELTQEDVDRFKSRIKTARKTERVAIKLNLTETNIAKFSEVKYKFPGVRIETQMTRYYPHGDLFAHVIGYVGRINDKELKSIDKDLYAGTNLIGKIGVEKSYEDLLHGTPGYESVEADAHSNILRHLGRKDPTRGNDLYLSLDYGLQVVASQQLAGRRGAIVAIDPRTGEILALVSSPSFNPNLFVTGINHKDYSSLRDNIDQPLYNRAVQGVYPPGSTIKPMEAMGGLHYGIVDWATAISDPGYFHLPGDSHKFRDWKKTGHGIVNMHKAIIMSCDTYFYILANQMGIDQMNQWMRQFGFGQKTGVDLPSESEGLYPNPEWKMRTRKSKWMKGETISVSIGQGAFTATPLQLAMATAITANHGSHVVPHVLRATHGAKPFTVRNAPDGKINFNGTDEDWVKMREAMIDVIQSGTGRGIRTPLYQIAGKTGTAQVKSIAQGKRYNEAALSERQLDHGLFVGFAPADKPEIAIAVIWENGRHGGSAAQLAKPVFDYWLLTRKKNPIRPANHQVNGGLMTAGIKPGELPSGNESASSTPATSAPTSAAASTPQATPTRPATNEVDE

Row | SMILES | EC50 (A. baumannii PBP2) [µM] | MIC (P. aeruginosa ATCC 27853) [µg/mL] | MIC (A. baumannii ATCC 19606) [µg/mL] | MIC (P. aeruginosa CDC-0110) [µg/mL] | IC50 [1] [µM] | MIC (P. aeruginosa CDC-0090) [µg/mL] | MIC (A. baumannii CDC-0045) [µg/mL] | MIC (A. baumannii CDC-0033) [µg/mL] | MIC (P. aeruginosa CDC-0095) [µg/mL] | MIC [2] [µg/mL] | MIC (A. baumannii CDC-0083) [µg/mL] | MIC (P. aeruginosa ATCC 35151) [µg/mL]
1 | O=C(NCCCN1CCN(C(=O)NC(C(=O)N[C@H]2Cc3ccc(F)c(C(=O)O)c3OB2O)c2cc(F)c(O)c(O)c2Cl)C(=O)C1=O)c1cc(O)cc(O)c1 (stereo partly drawn) [Example 423, (3R)-3-(2-(2-chloro-5-fluoro-3,4-dihydroxyphenyl)-2-(4-(3-(3,5-dihydroxybenzamido)propyl)-2,3-dioxopiperazine-1-carboxamido)acetamido)-7-fluoro-2-hydroxy-3,4-dihydro-2H-benzo[e][1,2]oxaborinine-8-carboxylic acid] | < 10 | < 1 | < 1 | < 1 | < 10 | < 1 | < 1 | 2 to 4 (≈ 2.58 to 5.16 µM) | < 1 | < 1 | > 128 | < 1
2 | O=C(NCCCN1CCN(C(=O)NC(C(=O)N[C@H]2Cc3ccc(F)c(C(=O)O)c3OB2O)c2cc(F)c(O)c(O)c2Cl)C(=O)C1=O)c1cc(O)ccc1Cl (stereo partly drawn) [Example 408, (3R)-3-(2-(2-chloro-5-fluoro-3,4-dihydroxyphenyl)-2-(4-(3-(2-chloro-5-hydroxybenzamido)propyl)-2,3-dioxopiperazine-1-carboxamido)acetamido)-7-fluoro-2-hydroxy-3,4-dihydro-2H-benzo[e][1,2]oxaborinine-8-carboxylic acid] | < 10 | < 1 | < 1 | < 1 | < 10 | < 1 | < 1 | 2 to 4 (≈ 2.52 to 5.04 µM) | < 1 | 8 to 16 (≈ 10.1 to 20.1 µM) | < 1 | < 1
3 | O=C(NCCN1CCN(C(=O)N[C@@H](C(=O)N[C@H]2Cc3ccc(F)c(C(=O)O)c3OB2O)c2cc(F)c(O)c(O)c2Cl)C1=O)Nc1ccc(O)cc1 [Example 279, (R)-3-((R)-2-(2-chloro-5-fluoro-3,4-dihydroxyphenyl)-2-(3-(2-(3-(4-hydroxyphenyl)ureido)ethyl)-2-oxoimidazolidine-1-carboxamido)acetamido)-7-fluoro-2-hydroxy-3,4-dihydro-2H-benzo[e][1,2]oxaborinine-8-carboxylic acid] | 10 to 50 | 2 to 4 (≈ 2.73 to 5.46 µM) | < 1 | < 1 | < 10 | 2 to 4 (≈ 2.73 to 5.46 µM) | < 1 | 2 to 4 (≈ 2.73 to 5.46 µM) | 2 to 4 (≈ 2.73 to 5.46 µM) | < 1 | < 1 | < 1
4 | O=C(NCCCN1CCN(C(=O)NC(C(=O)N[C@H]2Cc3ccc(F)c(C(=O)O)c3OB2O)c2cc(F)c(O)c(O)c2Cl)C(=O)C1=O)c1cc(F)ncc1F (mixture of isomers) [Example 405] | 10 to 50 | 2 to 4 | < 1 | 2 to 4 | < 10 | 2 to 4 | < 1 | 2 to 4 | 2 to 4 | 2 to 4 | < 1 | < 1
5 | O=C(NCCCS(=O)(=O)N1CCN(C(=O)NC(C(=O)N[C@H]2Cc3ccc(F)c(C(=O)O)c3OB2O)c2cc(F)c(O)c(O)c2Cl)C1=O)Nc1cccc(O)c1 (stereo partly drawn) [Example 277, (3R)-3-(2-(2-chloro-5-fluoro-3,4-dihydroxyphenyl)-2-(3-((3-(3-(3-hydroxyphenyl)ureido)propyl)sulfonyl)-2-oxoimidazolidine-1-carboxamido)acetamido)-7-fluoro-2-hydroxy-3,4-dihydro-2H-benzo[e][1,2]oxaborinine-8-carboxylic acid] | < 10 | 2 to 4 (≈ 2.47 to 4.93 µM) | < 1 | 8 to 16 (≈ 9.87 to 19.7 µM) | < 10 | 2 to 4 (≈ 2.47 to 4.93 µM) | 2 to 4 (≈ 2.47 to 4.93 µM) | 2 to 4 (≈ 2.47 to 4.93 µM) | 8 to 16 (≈ 9.87 to 19.7 µM) | > 128 | < 1 | < 1
6 | O=C(NCCCN1CCN(C(=O)NC(C(=O)N[C@H]2Cc3ccc(F)c(C(=O)O)c3OB2O)c2cc(F)c(O)c(O)c2Cl)C(=O)C1=O)c1ccncc1Cl (stereo partly drawn) [Example 295, (3R)-3-(2-(2-chloro-5-fluoro-3,4-dihydroxyphenyl)-2-(4-(3-(3-chloroisonicotinamido)propyl)-2,3-dioxopiperazine-1-carboxamido)acetamido)-7-fluoro-2-hydroxy-3,4-dihydro-2H-benzo[e][1,2]oxaborinine-8-carboxylic acid] | 10 to 50 | 2 to 4 (≈ 2.57 to 5.13 µM) | < 1 | < 1 | < 10 | < 1 | < 1 | 2 to 4 (≈ 2.57 to 5.13 µM) | < 1 | < 1 | < 1 | < 1
7 | O=C(O)c1c(F)ccc2c1OB(O)[C@@H](NC(=O)C(NC(=O)N1CCN(C3CCN(C(=O)Nc4cccc(O)c4)CC3)C(=O)C1=O)c1cc(F)c(O)c(O)c1Cl)C2 (stereo partly drawn) [Example 424, (3R)-3-(2-(2-chloro-5-fluoro-3,4-dihydroxyphenyl)-2-(4-(1-((3-hydroxyphenyl)carbamoyl)piperidin-4-yl)-2,3-dioxopiperazine-1-carboxamido)acetamido)-7-fluoro-2-hydroxy-3,4-dihydro-2H-benzo[e][1,2]oxaborinine-8-carboxylic acid] | < 10 | < 1 | < 1 | < 1 | < 10 | < 1 | < 1 | < 1 | < 1 | 2 to 4 (≈ 2.5 to 4.99 µM) | 2 to 4 (≈ 2.5 to 4.99 µM) | < 1
8 | O=C(O)c1c(F)ccc2c1OB(O)[C@@H](NC(=O)C(NC(=O)N1CCN(C3CCN(S(=O)(=O)c4cccc(O)c4)CC3)C(=O)C1=O)c1cc(F)c(O)c(O)c1Cl)C2 (stereo partly drawn) [Example 428, (3R)-3-(2-(2-chloro-5-fluoro-3,4-dihydroxyphenyl)-2-(4-(1-((3-hydroxyphenyl)sulfonyl)piperidin-4-yl)-2,3-dioxopiperazine-1-carboxamido)acetamido)-7-fluoro-2-hydroxy-3,4-dihydro-2H-benzo[e][1,2]oxaborinine-8-carboxylic acid] | < 10 | 2 to 4 (≈ 2.43 to 4.87 µM) | < 1 | < 1 | < 10 | < 1 | < 1 | 2 to 4 (≈ 2.43 to 4.87 µM) | 2 to 4 (≈ 2.43 to 4.87 µM) | > 128 | 8 to 16 (≈ 9.73 to 19.5 µM) | < 1
9 | O=C(NCCCN1CCN(C(=O)N[C@@H](C(=O)N[C@H]2Cc3ccc(F)c(C(=O)O)c3OB2O)c2cc(F)c(O)c(O)c2Cl)C(=O)C1=O)c1ccc(O)cc1Cl (single isomer, unassigned) [Example 471] | < 10 | < 1 | < 1 | < 1 | < 10 | < 1 | < 1 | 2 to 4 (≈ 2.52 to 5.04 µM) | < 1 | < 1 | > 128 | < 1
10 | O=C(NCCCN1CCN(C(=O)N[C@@H](C(=O)N[C@H]2Cc3ccc(F)c(C(=O)O)c3OB2O)c2cc(F)c(O)c(O)c2Cl)C(=O)C1=O)c1cc(F)nc(F)c1 (racemic) [Example 401] | 10 to 50 | 2 to 4 (≈ 2.56 to 5.12 µM) | < 1 | < 1 | < 10 | < 1 | < 1 | 2 to 4 (≈ 2.56 to 5.12 µM) | < 1 | > 128 | 2 to 4 (≈ 2.56 to 5.12 µM) | < 1
